According to patent US20220257542A1, “PHARMACEUTICAL COMPOSITION COMPRISING TRIMETHOBENZAMIDE OR PHARMACEUTICALLY ACCEPTABLE SALT THEREOF AS ACTIVE INGREDIENT FOR PREVENTING OR TREATING NEUROPATHIC PAIN” (FRONTBIO INC., priority 2019, published 2022):

System: neuropathy model mice
Assay: Von Frey filament stimulation test in streptozotocin-induced neuropathy animal model
Format: in vivo, ICR mice
Details: oral, 10, 20, 40 and 80 mg/kg in physiological saline; tested 1, 2, 3, 4 and 5 hours after administration; FIG. 1
Description: First, a neuropathy animal model was prepared by administering streptozocin. Specifically, streptozotocin was intraperitoneally administered to 4-week-old ICR mice at the concentration of 75 mg/kg. Five weeks after the administration, the expression of neuropathy was confirmed through the level of blood glucose and Von Frey filament stimulation tests, and the mice were used for the following experiments.
Specifically, trimethobenzamide was dissolved in physiological saline to prepare trimethobenzamide solutions with the concentrations of 10, 20, 40 and 80 mg/kg. The prepared trimethobenzamide solutions were orally administered to neuropathy model mice, and Von Frey filament stimulation test was performed 1, 2, 3, 4 and 5 hours after the administration to confirm the inhibitory effect on neuropathy.
Specifically, trimethobenzamide or tramadol was dissolved in physiological saline to prepare trimethobenzamide solution with the concentration of 60 mg/kg, or tramadol solution with the concentration of 20 mg/kg. After co-administration of the tramadol solution with the concentration of 20 mg/kg and the trimethobenzamide solution with the concentration of 20, 40 or 60 mg/kg solution, the effect of the co-administration was confirmed. […]

Structure (SMILES): COc1cc(C(=O)NCc2ccc(OCCN(C)C)cc2)cc(OC)c1OC [trimethobenzamide]
- inhibitory effect on neuropathy (pain), trimethobenzamide administered alone: significant effect on the inhibition of neuropathy in a concentration-dependent manner
